Legend:
[1] = test system: release of the leukotriene LTB4 from MPRO cell line; assay: LTB4 assay (competitive ELISA); assay type: cell-based; conditions: Mus musculus; 1 μM calcium ionophore A23187, 1 hour; read-out: EC50, inhibition of LTB4 production
Description: This procedure was used for measuring the release of the leukotriene LTB4 from a neutrophil cell line using a competitive ELISA technique.
• MPRO cell line (ATCC, Catalog #CRL-11422) • Calciumionophore (A23187) (Sigma, Catalog #C7522) • Nordihydroguaiaretic acid (NDGA) (BioMol, Catalog #E1101-0001) • Retinoic Acid (all-trans) (ATRA) (Sigma, Catalog #95152) • Sterile, tissue-culture treated 96-well plates (Corning, Catalog #3614) Materials for LTB4 ELISA • Precoated (Mouse Anti-Rabbit IgG) EIA 96 Well Strip Plates (Cayman, Catalog #400004) • Leukotriene B4 AChE Tracer (Cayman Catalog #420110) • Leukotriene B4 EIA Antiserum (Cayman Catalog #420112) • Ellman's Reagent (Cayman Catalog #400050) • EIA Buffer Concentrate (10×) (Cayman Catalog #400060) • Wash Buffer Concentrate (400×) (Cayman Catalog #400062) • Plastic plate covers (Cayman Catalog #400012) Procedure
A mouse promyelocytic cell line (MPRO) was used in this assay. These cells are committed immature neutrophils that can be differentiated into mature neutrophils by treatment with 10 μM all-trans retinoic acid for 72 hours
Following 72 hours of differentiation, cells were stimulated with 1 μM of a calcium ionophore (A23187) in the presence or absence of test compound or vehicle for 1 hour at 370 C. After this time, supernatant was removed from the cells and the LTB4 levels were determined following manufacturer's instructions, using a Leukotriene B4 EIA kit from Cayman (Cat #520111)
The negative controls were media samples from differentiated but unstimulated cells.
The compounds were screened at 5 concentrations in quadruplicate starting at 10 μM

[2] = target: T1, human recombinant 5-lipoxygenase (Homo sapiens, UniProt P09917); assay: 5-Lipoxygenase enzyme assay; assay type: biochemical; conditions: 70 μM arachidonic acid, pH 7.4, 10 minute incubation; read-out: IC50, inhibition of 5-Lipoxygenase
T1 construct: purchased Cayman 60402
T1 sequence (P09917 1-674): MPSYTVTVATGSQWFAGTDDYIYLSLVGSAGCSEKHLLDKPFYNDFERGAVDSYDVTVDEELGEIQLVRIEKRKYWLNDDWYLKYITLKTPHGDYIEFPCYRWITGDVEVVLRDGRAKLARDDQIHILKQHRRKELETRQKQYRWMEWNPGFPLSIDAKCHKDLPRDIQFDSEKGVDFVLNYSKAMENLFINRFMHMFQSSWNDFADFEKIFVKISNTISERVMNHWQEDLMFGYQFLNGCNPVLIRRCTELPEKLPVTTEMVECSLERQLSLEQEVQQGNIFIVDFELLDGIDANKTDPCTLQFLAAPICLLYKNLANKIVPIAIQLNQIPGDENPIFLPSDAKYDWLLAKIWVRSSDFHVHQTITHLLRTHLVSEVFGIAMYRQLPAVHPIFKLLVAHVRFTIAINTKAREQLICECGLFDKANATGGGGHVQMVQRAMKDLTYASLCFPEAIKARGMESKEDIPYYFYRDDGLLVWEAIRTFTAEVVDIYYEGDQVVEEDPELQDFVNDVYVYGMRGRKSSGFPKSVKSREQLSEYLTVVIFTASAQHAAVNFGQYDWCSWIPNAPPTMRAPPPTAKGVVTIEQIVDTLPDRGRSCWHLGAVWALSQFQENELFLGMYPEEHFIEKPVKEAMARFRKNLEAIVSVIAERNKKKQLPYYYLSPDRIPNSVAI

Row | SMILES | EC50 [1] | IC50 [2]
1 | Cc1c(C)c2c(c(C)c1O)CCC(C)(C=C(Br)Br)O2 (centres unmarked) [2-(2,2-Dibromo-vinyl)-2,5,7,8-tetramethyl-chroman-6-ol] | < 1000 nM | < 1000 nM
2 | COC(=O)c1ccc(-c2c(O)c(C)c(C)c3c2CCC(C)(C)O3)cc1 [4-(6-Hydroxy-2,2,7,8-tetramethyl-chroman-5-yl)-benzoic acid methyl ester] | < 1000 nM | –
3 | C=CCSCc1c(O)c(C)c(C)c2c1CCC(C)(C)O2 [5-Allylsulfanylmethyl-2,2,7,8-tetramethyl-chroman-6-ol] | < 1000 nM | < 1000 nM

Source: US8791155B2, “Chroman derivatives” (Edison Pharmaceuticals, Inc., priority 2003, dated 2014)
